Assay results as given in patent publication US20050239656A1, “Pyridine compounds or salts thereof and herbicides containing the same” (priority 2002, published 2005).

Tests used:
[1] = test system: wheat; assay: Test Example 2: soil surface treatment, upland pot test; type: in vivo, Triticum spp.; details: observed 20th to 28th day
Outline: (§1)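 Pre-emergence: the soil surface was sprayed 1 day after sowing with wettable powder or emulsifiable concentrate diluted in water at 1,500 L/ha, at a predetermined active ingredient amount. Growth control was scored visually 20–28 days after treatment, 0 (untreated) to 100 (complete kill).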

[2] = test system: green foxtail; assay: Test Example 1: foliage treatment, upland pot test; type: in vivo, Setaria viridis L.; details: active ingredient 500 g/ha, observed 18th to 23rd day, 0 = non-treated, 100 = complete kill
[3] = test system: corn; assay: Test Example 1: foliage treatment, upland pot test; type: in vivo, Zea mays L.; details: crop, active ingredient 500 g/ha, observed 18th to 23rd day, 0 = non-treated, 100 = complete kill
Outline: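 Corn seeds were sown in upland field soil held in a 1/170,000 ha pot and grown to the 2.1 to 3.2 leaf stage. A wettable powder or emulsifiable concentrate of the test compound was diluted with water at 500 L/ha, given 0.1% (v/v) agricultural spreader, and sprayed onto the foliage with a small sprayer. Growth controlling degree (%) was scored visually 18th to 23rd days later, from 0 (non-treated) to 100 (complete kill).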

[4] = test system: prickly sida; assay: Test Example 1: foliage treatment, upland pot test; type: in vivo, Sida spinosa L.; details: active ingredient 500 g/ha, observed 18th to 23rd day, 0 = non-treated, 100 = complete kill
[5] = test system: redroot pigweed; assay: Test Example 2: soil surface treatment, upland pot test; type: in vivo, Amaranthus retroflexus L.; details: observed 20th to 28th day
Outline: as §1

[6] = test system: soybean; assay: Test Example 1: foliage treatment, upland pot test; type: in vivo, Glycine max Merr.; details: crop, active ingredient 500 g/ha, observed 18th to 23rd day, 0 = non-treated, 100 = complete kill
Outline: (§2)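 Sow in upland field soil; grow to leaf stage (barnyardgrass 1.3–2.8, soybean 0.1–0.4, wheat 1.3–2.4, rice 1.2–2.6); spray foliage with compound in water, 500 L/ha, spreader 0.1% (v/v); assess visually at 18–23 d, 0 (as untreated) to 100 (full kill).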

[7] = test system: rice; assay: Test Example 2: soil surface treatment, upland pot test; type: in vivo, Oryza sativa L.; details: observed 20th to 28th day
Outline: as §1

[8] = test system: velvetleaf; assay: Test Example 1: foliage treatment, upland pot test; type: in vivo, Abutilon theophrasti MEDIC.; details: active ingredient 500 g/ha, observed 18th to 23rd day, 0 = non-treated, 100 = complete kill
[9] = test system: redroot pigweed; assay: Test Example 1: foliage treatment, upland pot test; type: in vivo, Amaranthus retroflexus L.; details: active ingredient 500 g/ha, observed 18th to 23rd day, 0 = non-treated, 100 = complete kill
[10] = test system: prickly sida; assay: Test Example 2: soil surface treatment, upland pot test; type: in vivo, Sida spinosa L.; details: observed 20th to 28th day
Outline: as §1

[11] = test system: rice (var. Nihonbare); assay: Test Example 3: paddy pot test, transplanted rice; type: in vivo, Oryza sativa L.; details: applied 4th day after transplantation, visually observed 21st day after application, 0 = non-treated, 100 = complete kill
Outline: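 Visual crop-injury rating (0 = as untreated, 100 = complete kill, %) taken 21 days post-application. Treatment: formulated compound, water-diluted, pipetted into 3–4 cm flood water at a preset active-ingredient dose, 4 days after transplanting 2-leaf Nihonbare rice 3 cm deep in puddled paddy soil.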

[12] = test system: corn; assay: Test Example 2: soil surface treatment, upland pot test; type: in vivo, Zea mays L.; details: active ingredient 500 g/ha, observed 20th to 28th day
Outline: as §1

[13] = test system: wheat; assay: Test Example 1: foliage treatment, upland pot test; type: in vivo, Triticum spp.; details: crop, active ingredient 500 g/ha, observed 18th to 23rd day, 0 = non-treated, 100 = complete kill
Description: Upland field soil was put into a 1/170,000 ha pot, and seed of various plants were sown. Then, when the plants reached predetermined leaf stages ((1) barnyardgrass: 1.3 to 2.8 leaf stages, (2) crabgrass: 1.0 to 2.8 leaf stages, (3) green foxtail: 1.3 to 2.6 leaf stages, (4) redroot pigweed: 0.1 to 1.2 leaf stages, (5) prickly sida: 0.1 to 1.2 leaf stages, (6) velvetleaf: 0.1 to 1.2 leaf stages, (7) tall morningglory: 0.1 to 1.5 leaf stages, (8) rice: 1.2 to 2.6 leaf stages, (9) wheat: 1.3 to 2.4 leaf stages, (10) corn, 2.1 to 3.2 leaf stages, (11) soybean: 0.1 to 0.4 leaf stage), a wettable powder or emulsifiable concentrate having the compound of the present invention formulated in accordance with a usual formulation method, was weighed so that the active ingredient would be a predetermined amount, and diluted with water in an amount of 500 L/ha. To the diluted solution, 0.1% (v/v) of agricultural spreader was added. The herbicide thus adjusted was applied by a small size sprayer for foliage treatment. On the 18th to 23rd days after the application of the herbicide, the growth of the respective plants was visually observed, and the herbicidal effects were evaluated by the growth controlling degrees (%) ranging from 0 (equivalent to the non-treated plot) to 100 (complete kill), whereby the results shown in Table 3, were obtained.

[14] = test system: velvetleaf; assay: Test Example 2: soil surface treatment, upland pot test; type: in vivo, Abutilon theophrasti MEDIC.; details: observed 20th to 28th day
Outline: as §1

[15] = test system: barnyardgrass; assay: Test Example 1: foliage treatment, upland pot test; type: in vivo, Echinochloa crus-galli L.; details: active ingredient 500 g/ha, observed 18th to 23rd day, 0 = non-treated, 100 = complete kill
Outline: as §2

[16] = test system: japanese bulrush; assay: Test Example 3: paddy pot test, application under submerged conditions; type: in vivo, Scirpus juncoides; details: submerged application at 0.5 leaf stage, visually observed 14 days after application, 0 = non-treated, 100 = complete kill
Outline: (§3)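 Paddy soil pots; seeds sown, lightly covered; flooded 0.5–1 cm in greenhouse; wapato tubers planted day 1–2; flood raised to 3–4 cm. Submerged pipette application at 0.5 leaf / primary leaf stage. Visual score day 14, 0–100%.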

[17] = test system: soybean; assay: Test Example 2: soil surface treatment, upland pot test; type: in vivo, Glycine max Merr.; details: observed 20th to 28th day
Outline: as §1

[18] = test system: crabgrass; assay: Test Example 1: foliage treatment, upland pot test; type: in vivo, Digitaria sanguinalis L.; details: active ingredient 500 g/ha, observed 18th to 23rd day, 0 = non-treated, 100 = complete kill
[19] = test system: barnyardgrass; assay: Test Example 3: paddy pot test, application under submerged conditions; type: in vivo, Echinochloa crus-galli L.; details: submerged application at 0.5 leaf stage, visually observed 14 days after application, 0 = non-treated, 100 = complete kill
Outline: as §3

[20] = test system: barnyardgrass; assay: Test Example 2: soil surface treatment, upland pot test; type: in vivo, Echinochloa crus-galli L.; details: observed 20th to 28th day
Outline: as §1

[21] = test system: crabgrass; assay: as above; type: in vivo, Digitaria sanguinalis L.; details: observed 20th to 28th day
Outline: as §1

[22] = test system: rice; assay: Test Example 1: foliage treatment, upland pot test; type: in vivo, Oryza sativa L.; details: crop, active ingredient 500 g/ha, observed 18th to 23rd day, 0 = non-treated, 100 = complete kill
Outline: as §2

[23] = test system: japanese ribbon wapato; assay: Test Example 3: paddy pot test, application under submerged conditions; type: in vivo, Sagittaria pygniaea; details: active ingredient 500 g/ha; submerged application at primary leaf stage; visually observed 14 days after application; 0 = non-treated, 100 = complete kill
Outline: as §3

[24] = test system: green foxtail; assay: Test Example 2: soil surface treatment, upland pot test; type: in vivo, Setaria viridis L.; details: observed 20th to 28th day
Outline: as §1

SMILES | Growth controlling degree (%) wheat ([1]; active ingredient 500 g/ha) | Growth controlling degree (%) Green foxtail [2] | Growth controlling degree (%) Corn [3] | Growth controlling degree (%) Prickly sida [4] | Growth controlling degree (%) Redroot pigweed ([5]; active ingredient 500 g/ha) | Growth controlling degree (%) Soybean [6] | Growth controlling degree (%) Rice ([7]; active ingredient 500 g/ha) | Growth controlling degree (%) Velvetleaf [8] | Growth controlling degree (%) Redroot pigweed [9] | Growth controlling degree (%) Prickly sida ([10]; active ingredient 500 g/ha) | Growth controlling degree (%) Rice ([11]; active ingredient 250 g/ha) | Growth controlling degree (%) Corn [12] | Growth controlling degree (%) wheat [13] | Growth controlling degree (%) Velvetleaf ([14]; active ingredient 500 g/ha) | Growth controlling degree (%) Barnyardgrass [15] | Growth controlling degree (%) Japanese bulrush ([16]; active ingredient 250 g/ha) | Growth controlling degree (%) Crabgrass [18] | Growth controlling degree (%) Barnyardgrass ([20]; active ingredient 500 g/ha) | Growth controlling degree (%) Crabgrass ([21]; active ingredient 500 g/ha) | Growth controlling degree (%) Rice [22] | other results
CC(Oc1ccc(Br)cc1)C(=O)N(C)C(c1cnccc1C(F)(F)F)C(C)C (mixture of isomers) [I-132] | 10% | 60% | 80% | 80% | 10% | 80% | 10% | 60% | 70% | 70% | 20% | 0% | 10% | 0% | 70% | 80% | 90% | 98% | 90% | 10% | Growth controlling degree (%) Soyabean ([17]; active ingredient 500 g/ha): 10%; Growth controlling degree (%) Barnyardgrass ([19]; active ingredient 250 g/ha): 100%
C=CC(=O)N(C)C(c1cnccc1C(F)(F)F)C(C)C (stereo not drawn) [I-190] | – | 80% | 70% | 70% | 80% | 60% | 98% | 60% | 70% | 90% | – | 10% | 70% | 50% | 80% | – | 80% | 100% | 100% | 70% | Growth controlling degree (%) Japanese ribbon wapato [23]: 90%; Growth controlling degree (%) Green foxtail ([24]; active ingredient 500 g/ha): 100%; Growth controlling degree (%) Rice ([11]; active ingredient 500 g/ha): 95%; Growth controlling degree (%) Japanese bulrush ([16]; active ingredient 500 g/ha): 98%; Growth controlling degree (%) Soyabean ([17]; active ingredient 500 g/ha): 30%; Growth controlling degree (%) Barnyardgrass ([19]; active ingredient 500 g/ha): 100%
CC(C)C(c1cnccc1C(F)(F)F)N(C)C(=O)Cc1csc2ccccc12 (stereo not drawn) [I-192] | 0% | 60% | – | 90% | 10% | 80% | 10% | 70% | 80% | 0% | – | 10% | 0% | 0% | 80% | – | – | 98% | 80% | 10% | Growth controlling degree (%) Green foxtail ([24]; active ingredient 500 g/ha): 80%; Growth controlling degree (%) Rice ([11]; active ingredient 500 g/ha): 30%; Growth controlling degree (%) Japanese bulrush ([16]; active ingredient 500 g/ha): 90%; Growth controlling degree (%) Barnyardgrass ([19]; active ingredient 500 g/ha): 100%
CCCCC(=O)N(C)C(c1cnccc1C(F)(F)F)C(C)C (stereo not drawn) [I-199] | – | 70% | 60% | 70% | – | 60% | – | 60% | 60% | – | 40% | – | 50% | – | 70% | 98% | 80% | – | – | 50% | Growth controlling degree (%) wheat ([1]; active ingredient 250 g/ha): 50%; Growth controlling degree (%) Redroot pigweed ([5]; active ingredient 250 g/ha): 70%; Growth controlling degree (%) Rice ([7]; active ingredient 250 g/ha): 90%; Growth controlling degree (%) Green foxtail ([24]; active ingredient 250 g/ha): 100%; Growth controlling degree (%) Prickly sida ([10]; active ingredient 250 g/ha): 80%; Growth controlling degree (%) Velvetleaf ([14]; active ingredient 250 g/ha): 50%; Growth controlling degree (%) Soyabean ([17]; active ingredient 250 g/ha): 20%; Growth controlling degree (%) Barnyardgrass ([19]; active ingredient 250 g/ha): 100%; Growth controlling degree (%) Barnyardgrass ([20]; active ingredient 250 g/ha): 100%; Growth controlling degree (%) Crabgrass ([21]; active ingredient 250 g/ha): 100%
